# Data reported in publication PMC7417534, “Cytochrome P450 inhibition potential and initial genotoxic evaluation of 14-O-[(4,6-diaminopyrimidine-2-yl)thioacetyl] mutilin” (Scientific Reports, 2020).
# Like-named read-outs stand apart in the source and are kept apart here.
# How the values were obtained:
# [1] = test system: CYP2D6 mRNA; assay: CYP2D6 mRNA expression in Hep G2 cells (real-time PCR); format: cell-based, human; conditions: 12 h
# Protocol: (§1) The logarithmic growth phase Hep G2 cells were seeded into 12-well plastic plates at a density of […]. After incubation at 37 °C under 5% CO2 for 24 h, the media were then replaced with 1 mL of serial dilutions of the DPTM (4.98, 0.16 and 0.08 mM) in fresh media. When cells were incubated for 2, 4 and 12 h at 37 °C under 5% CO2, the RNA was isolated using the Trizol reagent according to the manufacturer’s protocol. Total RNA (5 μL) was transcribed into cDNA by using the PrimeScript RT reagent Kit (Perfect Real Time). The obtained cDNA (5 μL) was added for 45 cycles of PCR amplification to detect the mRNA expression (the primers and sequences used herein were given in Table 3) using the ABI Villa TM7Dx real-time PCR system (Gaithersburg, USA). Glyceraldehyde-3-phosphate dehydrogenase (GAPDH) was used as reference gene. All reactions were performed in a final volume of 20 μL (10 μL of 2 × SYBR Green Real-time PCR Master Mix, 2 μL of cDNA and 2 μL of the primers and 6 μL DEPC water) and executed in triplicate.
# [2] = test system: CYP3A; assay: Cocktail CYP inhibition in rat liver microsomes, CYP3A (dapsone); format: in vitro ADME; conditions: probe dapsone (55 μM), cocktail method, read-out: IC50 values, CYP3A in RLMs
# Protocol: (§2) We used the cocktail method to study the inhibition activities of DPTM against CYP enzymes in RLMs and HLMs with slight modification. DPTM (250 μmol) was dissolved in 1.25 mL methanol to a solution and then diluted with methanol and water to 2, 10, 20, 100, 200, 400, 1,000 and 2000 μM, respectively. The obtained serial dilutions (10 μL) were added to the incubation mixtures (200 μL total volume), containing 100 μL RLMs or HLMs (final concentration was 5 μg/μL, respectively), 10 μL glucose-6-phosphate (final concentration was 1 mM), 10 μL glucose-6-phosphate dehydrogenase (final concentration was 0.1 U/L), 20 μL potassium phosphate buffer (final concentration was 0.01 M) and 20 μL MgCl2 (final concentration was 2 mM), to give the final concentrations were 0.1, 0.5, 1, 5 10, 20, 50, and 100 μM, respectively. For the groups that in the absence of DPTM, 10 μL methanol (1%) replaced the DPTM and was added to the incubation mixtures. […] The final concentration of methanol in all the incubation mixtures, including the blank group, was […]. […] The determined metabolic substrates were used for calculating the relative enzyme activity (Erel) by the following formula: Erel (%) = Ci(n)/Ci(0) × 100%, in which Ci(n) was the determined metabolic substrates in the presence of varying concentrations of DPTM and Ci(0) was the determined metabolic substrates in the absence of DPTM. […]
# [3] = molecular target: T1, CYP1A2 (Rattus norvegicus, UniProt P04799); assay: Cocktail CYP inhibition in rat liver microsomes, CYP1A2 (phenacetin); format: in vitro ADME; conditions: cocktail method, read-out: IC50 values, CYP1A2 in RLMs
# T1 construct: containing 100 μL RLMs or HLMs; tissue Research Institute for Liver Diseases (Shanghai) Co., Ltd; host or cells: male SD rat liver microsomes
# T1 sequence (P04799 whole entry): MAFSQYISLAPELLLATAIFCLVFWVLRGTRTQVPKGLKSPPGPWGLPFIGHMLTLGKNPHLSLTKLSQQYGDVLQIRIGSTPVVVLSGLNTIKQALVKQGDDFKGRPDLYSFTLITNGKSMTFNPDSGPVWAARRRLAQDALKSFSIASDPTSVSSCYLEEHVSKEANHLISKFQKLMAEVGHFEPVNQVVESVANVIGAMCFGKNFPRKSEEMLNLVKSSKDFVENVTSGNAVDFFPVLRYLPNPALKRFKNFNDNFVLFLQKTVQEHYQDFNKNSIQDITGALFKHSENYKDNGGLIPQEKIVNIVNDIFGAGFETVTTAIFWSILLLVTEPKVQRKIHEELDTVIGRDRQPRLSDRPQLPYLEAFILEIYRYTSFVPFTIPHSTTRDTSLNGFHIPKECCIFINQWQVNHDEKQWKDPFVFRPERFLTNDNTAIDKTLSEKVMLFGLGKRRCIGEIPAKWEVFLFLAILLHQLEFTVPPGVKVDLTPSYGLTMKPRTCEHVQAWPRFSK
# Protocol: as §2
# [4] = test system: S. typhimurium TA100; conditions: − S9
# Text: S. typhimurium strains TA97, TA98, TA100, TA102 and TA1535 were stored and maintained as provided in the standard protocol. Each of the strains was checked for their genetic integrity prior to the experiment, and tested for biotin dependence, histidine dependence, biotin and histidine dependence, rfa marker (crystal violet) and presence of the plasmid pKM101 (ampicillin resistance) or pAQ1 (tetracycline resistance). Different strains were used to identify different types of mutations.
# The test was carried out at five different concentrations of DPTM. […] Then 1 mL solution was diluted with distilled water by two fold. […] The negative control used in this experiment was 1 mL DMSO which was directly incorporated into 9 mL melted top agar.
# The Ames test of DPTM was conducted as described in the literatures[42],[43] with some modifications. Briefly, 1 mL of strain was inoculated into 5 mL of nutrient broth, followed by incubating overnight at 37 °C. The mixture comprised respective strains, drug, negative and positive controls with the S9 for testing in the presence of metabolic activation system. For testing without S9, 1 × phosphate buffer saline (PBS, pH 7.4) replaced the S9 mix. The obtained mixtures were added into the tube, mixed well and incubated at 37 °C for 20 min. Then, the top agar was melted and 2 mL of this melted top agar was added to each tube and gently mixed. […] The results were expressed as the number of revertant colonies per plate. The experiments were performed in triplicate.
# [5] = test system: AhR mRNA; assay: AhR mRNA expression in Hep G2 cells (real-time PCR); format: cell-based, human
# Protocol: as §1
# [6] = molecular target: T2, CYP2C11 (Rattus norvegicus, UniProt P08683); assay: Cocktail CYP inhibition in rat liver microsomes, CYP2C11 (tolbutamide); format: in vitro ADME; conditions: cocktail method, read-out: IC50 values, CYP2C11 in RLMs
# T2 construct: containing 100 μL RLMs or HLMs; tissue Research Institute for Liver Diseases (Shanghai) Co., Ltd; host or cells: male SD rat liver microsomes
# T2 sequence (P08683 whole entry): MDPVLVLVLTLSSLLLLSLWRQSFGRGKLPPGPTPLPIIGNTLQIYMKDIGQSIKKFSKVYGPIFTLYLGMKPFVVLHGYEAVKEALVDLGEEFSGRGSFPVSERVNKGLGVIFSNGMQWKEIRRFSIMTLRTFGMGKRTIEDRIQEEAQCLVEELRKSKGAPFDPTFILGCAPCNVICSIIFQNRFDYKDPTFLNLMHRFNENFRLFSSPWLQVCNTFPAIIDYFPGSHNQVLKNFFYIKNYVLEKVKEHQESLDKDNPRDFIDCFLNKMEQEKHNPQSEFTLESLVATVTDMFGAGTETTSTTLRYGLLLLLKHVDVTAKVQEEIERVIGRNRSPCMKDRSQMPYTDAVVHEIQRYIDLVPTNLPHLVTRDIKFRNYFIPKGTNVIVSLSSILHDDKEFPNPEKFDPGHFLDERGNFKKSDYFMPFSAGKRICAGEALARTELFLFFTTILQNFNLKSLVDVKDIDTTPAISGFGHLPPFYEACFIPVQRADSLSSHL
# Protocol: as §2
# [7] = molecular target: T3, CYP2D6 (Homo sapiens, UniProt P10635); assay: Cocktail CYP inhibition in human liver microsomes, CYP2D6 (metoprolol); format: in vitro ADME; conditions: cocktail method, read-out: IC50 values, CYP2D6 in HLMs
# T3 construct: containing 100 μL RLMs or HLMs; tissue Research Institute for Liver Diseases (Shanghai) Co., Ltd; host or cells: pooled human liver microsomes
# T3 sequence (P10635 whole entry): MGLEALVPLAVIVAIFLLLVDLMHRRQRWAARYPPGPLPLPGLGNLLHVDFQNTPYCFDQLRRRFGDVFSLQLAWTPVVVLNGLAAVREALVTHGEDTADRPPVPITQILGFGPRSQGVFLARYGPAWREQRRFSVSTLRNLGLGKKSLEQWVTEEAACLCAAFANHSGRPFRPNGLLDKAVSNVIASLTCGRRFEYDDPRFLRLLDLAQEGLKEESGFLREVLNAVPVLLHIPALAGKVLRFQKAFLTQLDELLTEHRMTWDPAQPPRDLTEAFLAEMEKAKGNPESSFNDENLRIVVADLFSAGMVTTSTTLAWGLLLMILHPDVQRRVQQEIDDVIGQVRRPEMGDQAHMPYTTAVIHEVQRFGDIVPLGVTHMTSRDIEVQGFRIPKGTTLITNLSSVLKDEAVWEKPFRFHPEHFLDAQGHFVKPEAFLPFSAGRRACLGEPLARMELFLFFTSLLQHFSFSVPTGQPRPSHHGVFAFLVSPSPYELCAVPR
# Protocol: as §2
# [8] = molecular target: T4, CYP2E1 (Homo sapiens, UniProt P05181); assay: Cocktail CYP inhibition in human liver microsomes, CYP2E1 (chlorzoxazone); format: in vitro ADME; conditions: cocktail method, read-out: IC50 values, CYP2E1 in HLMs
# T4 construct: containing 100 μL RLMs or HLMs; tissue Research Institute for Liver Diseases (Shanghai) Co., Ltd; host or cells: pooled human liver microsomes
# T4 sequence (P05181 whole entry): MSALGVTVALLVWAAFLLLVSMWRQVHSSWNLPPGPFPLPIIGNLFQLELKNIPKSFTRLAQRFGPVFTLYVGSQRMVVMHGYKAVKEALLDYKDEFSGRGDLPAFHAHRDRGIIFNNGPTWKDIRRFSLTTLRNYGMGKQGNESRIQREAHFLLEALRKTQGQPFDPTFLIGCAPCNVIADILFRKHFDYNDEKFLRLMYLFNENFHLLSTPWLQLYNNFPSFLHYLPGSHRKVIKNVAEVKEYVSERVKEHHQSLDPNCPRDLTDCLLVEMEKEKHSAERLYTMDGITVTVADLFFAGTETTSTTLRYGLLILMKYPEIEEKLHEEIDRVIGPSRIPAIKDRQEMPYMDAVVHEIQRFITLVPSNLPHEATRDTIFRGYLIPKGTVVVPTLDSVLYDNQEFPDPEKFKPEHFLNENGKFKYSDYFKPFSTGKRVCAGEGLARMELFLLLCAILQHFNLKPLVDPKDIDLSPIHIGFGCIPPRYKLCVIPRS
# Protocol: as §2
# [9] = molecular target: T5, CYP1A2 (Homo sapiens, UniProt P05177); assay: Cocktail CYP inhibition in human liver microsomes, CYP1A2 (phenacetin); format: in vitro ADME; conditions: cocktail method, read-out: IC50 values, CYP1A2 in HLMs
# T5 construct: containing 100 μL RLMs or HLMs; tissue Research Institute for Liver Diseases (Shanghai) Co., Ltd; host or cells: pooled human liver microsomes
# T5 sequence (P05177 whole entry): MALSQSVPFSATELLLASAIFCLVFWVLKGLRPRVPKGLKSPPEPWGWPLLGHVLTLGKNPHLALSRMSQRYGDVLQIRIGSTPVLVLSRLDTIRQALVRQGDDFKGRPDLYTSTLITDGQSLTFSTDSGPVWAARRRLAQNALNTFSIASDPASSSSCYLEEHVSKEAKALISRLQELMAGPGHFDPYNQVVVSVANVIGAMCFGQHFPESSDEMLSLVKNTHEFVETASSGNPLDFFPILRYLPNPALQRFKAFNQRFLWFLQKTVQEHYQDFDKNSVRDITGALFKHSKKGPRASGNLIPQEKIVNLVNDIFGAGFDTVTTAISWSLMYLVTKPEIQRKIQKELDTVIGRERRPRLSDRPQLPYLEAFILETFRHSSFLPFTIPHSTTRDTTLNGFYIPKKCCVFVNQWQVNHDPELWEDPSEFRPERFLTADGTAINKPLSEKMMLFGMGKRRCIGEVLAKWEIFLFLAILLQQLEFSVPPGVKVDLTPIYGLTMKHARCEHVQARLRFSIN
# Protocol: as §2
# [10] = test system: PXR mRNA; assay: PXR mRNA expression in Hep G2 cells (real-time PCR); format: cell-based, human; conditions: 4 and 12 h, three doses
# Protocol: as §1
# [11] = molecular target: T6, CYP2C9 (Homo sapiens, UniProt P11712); assay: Cocktail CYP inhibition in human liver microsomes, CYP2C9 (tolbutamide); format: in vitro ADME; conditions: cocktail method, read-out: IC50 values, CYP2C9 in HLMs
# T6 construct: containing 100 μL RLMs or HLMs; tissue Research Institute for Liver Diseases (Shanghai) Co., Ltd; host or cells: pooled human liver microsomes
# T6 sequence (P11712 whole entry): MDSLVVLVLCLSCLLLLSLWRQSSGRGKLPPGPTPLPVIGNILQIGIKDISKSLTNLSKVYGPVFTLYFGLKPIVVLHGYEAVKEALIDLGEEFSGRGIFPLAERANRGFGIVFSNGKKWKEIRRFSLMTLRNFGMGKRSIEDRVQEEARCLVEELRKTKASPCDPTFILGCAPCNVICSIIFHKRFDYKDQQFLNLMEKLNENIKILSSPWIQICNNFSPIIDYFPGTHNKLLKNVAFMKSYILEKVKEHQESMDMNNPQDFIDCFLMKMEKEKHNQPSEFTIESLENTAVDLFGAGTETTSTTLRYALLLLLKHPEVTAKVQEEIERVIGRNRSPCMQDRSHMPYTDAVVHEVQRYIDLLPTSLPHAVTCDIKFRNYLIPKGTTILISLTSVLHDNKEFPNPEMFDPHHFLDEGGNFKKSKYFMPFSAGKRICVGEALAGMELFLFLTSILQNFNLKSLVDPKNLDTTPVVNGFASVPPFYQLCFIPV
# Protocol: as §2
structure (smiles),measurement,setting,value
"C=CC1(C)CC(OC(=O)CSc2nc(N)cc(N)n2)C2(C)C(C)CCC3(CCC(=O)C32)C(C)C1O (stereo not shown) [DPTM, 14-O-[(4,6-Diaminopyrimidine-2-yl)thioacetyl] mutilin]",CYP2D6 mRNA expression versus control,[1],significantly lowered
same,IC50 at 15 min,[2],10 ± 2 µM
same,IC50,[3],> 100 µM
same,"revertant colonies per plate, TA100",[4]; dose 0.25 μmol/plate,171 ± 15 CFU
same,"revertant colonies per plate, TA100",[4]; dose 0.50 μmol/plate,162 ± 13 CFU
same,"revertant colonies per plate, TA100",[4]; dose 1.00 μmol/plate,165 ± 14 CFU
same,"revertant colonies per plate, TA100",[4]; dose 1.99 μmol/plate,170 ± 12 CFU
same,"revertant colonies per plate, TA100",[4]; dose 3.98 μmol/plate,173 ± 15 CFU
same,AhR mRNA content versus control,"[5]; 2 and 4 h, 4.98, 0.16 and 0.08 mM",significantly increased
same,AhR mRNA content versus control,[5]; 12 h,no effect
same,IC50,[6],> 100 µM
same,IC50,[7],> 100 µM
same,IC50,[8],67 ± 6 µM
same,IC50,[9],> 100 µM
same,PXR mRNA expression versus control,[10],significantly increased
same,IC50,[11],> 100 µM
